Data on 22 compounds can be found in patent US20080234183A1, “Cell Penetrating Peptides” (priority 2002, published 2008).

The subject of data set [1] is human Bowes melanoma cells. Kind of data set: Cellular penetration of biotin-labelled peptide. The format is cell-based. Here is the method:
The medium containing serum was exchanged for a serum-free medium and water solution of the peptide was added directly into the medium to reach the concentration of 10 μM. A negative control was always used, because living cells all the time have some biotin inside. To control cells pure water instead peptide solution were added, and further handled alike all other. The cells were incubated for 1 h at 37° C. or 4° C. in 5% CO2 enriched air. The cells were washed three times with PBS, fixed and permeabilised with methanol for 10 min at −20° C., washed again with PBS and Incubated for 1 h in a 5% (w/v) solution of fat-free milk in PBS in order to decrease non-specific binding. The peptides were visualised by staining with 0.1 μM streptavidin-FITC in the same solution for 1 hour at room temperature. The cell nuclei were visualised by staining with DNA with Hoechst 33258 (0.5 μg/ml) for 5 min, thereafter the coverslips were washed 3 times with PBS and mounted in 20% glycerol in PBS. The images were obtained by Zeiss Axioplan 2 microscope (Carl Zeiss Inc., Germany).

For data set [2], the system named is pancreatic islets. Nature of the data set: Insulin release from isolated pancreatic islets. The format is cell-based, rat. Here is the method: Effects of the peptides on insulin secretion were assessed in pancreatic islets from male Wistar rats weighing 200-250 g. Islets were isolated aseptically by colagenase digestion, and then cultured overnight at 37° C. in RPMI 1640 culture medium supplemented with 10% heat-inactivated fetal calf serum. After culturing, analysis of insulin secretion was performed by incubation at 37° C. for 1 h in batches of 3 islets, each in 300 μl of Krebs-Ringer bicarbonate buffer with 10 mM Hepes and 2 mg/ml bovine serum albumin, pH 7.4. The incubation medium contained either 3.3 or 16.7 mM glucose, with or without peptide. In one experimental series, batches of 5×10^5 Rin m5F cells were incubated under similar conditions, except that glucose was omitted from the medium. Aliquots of the incubation medium were taken for radioimmunoassay of Insulin. Insulin secretion is expressed as IU insulin/islet/h and IU insulin/5×10^5 cells/h, respectively. Statistical significance was evaluated with the Student's t-test with p<0.05 regarded as significant

The subject of data set [3] is porcine left anterior descending coronary artery. Nature of the data set: Blood vessel contraction measurement. Here is the method: Dissected porcine hearts (260-390 g) were transported from local slaughterhouse to the laboratory in ice-cold Krebs-Henseleit solution (119 mM NaCl, 23.8 mM NaHCO3, 3 mM KCl, 1.14 mM NaH2PO4, 1.63 mM CaCl2, and 16.5 mM glucose). Left anterior descending coronary artery and great cardiac vein were isolated. Part of each blood vessel was used immediately after Isolation for contraction assays while part of it was kept frozen in liquid nitrogen for the membrane preparation. In some experiments blood vessels in which endothelium was mechanically removed were used. The same procedure was used also for the preparation of human umbilical blood vessels; umbilical cords were obtained from Obstetric Clinic of Ljubljana Clinical Center, Slovenia.
The measurements were performed as already described (20). Rings (5 mm wide) of blood vessels were cut and mounted into 10 ml tissue chamber filled with Krebs-Henseleit solution (37° C.; pH=7.4) which was oxygenated with the mixture of ^95% O2 and 5% CO2. Initial tension of 50 mN was applied and after equilibration 30 mM KCl was added to obtain stable Isometric contraction. The presence of endothelium was verified with substance P. After washing out of KCl and substance P and after the equilibration of the system was restored, test peptide was added into the tissue chamber and blood vessel contraction was recorded.

Data set [4] relates to N2A mouse neuroblastoma cells. Nature of the data set: Cellular internalisation assay of fluorescein-labelled APP and PS peptides. The format is cell-based. The note with it: for cellular localisation / cellular internalisation: 10 μM, 37°; for cellular internalisation: 60 min. Here is the method: Mouse neuroblastoma cells, N2A, were cultivated in Dulbecco's minimal essential medium with Glutamax-I, supplemented with 10% (v/v) fetal bovine serum, penicillin (100 U/ml) and streptomycin (100 μg/ml).
The cells used for Internalisation were seeded out on round glass coverslips in 24well plates. One day post seeding, the cells were semi confluent, and the medium was changed to serum-free medium. The fluorescein-labelled peptides were added, with a final concentration of 10 μM. After 60 min of incubation at 37°, the cells were washed 3 times with 1 ml of Hepes-Krebbs-Ringer-(HKR) buffer and fixed with 3% paraformaldehyde solution in phosphate-buffered saline solution (PBS) for 10 minutes. The cells were then washed 3 times with 1 ml of HKR-buffer, and the coverslips were mounted and sealed for microscopy studies.
The cell type used for the internalisation assays with the fluorescein'tagged peptides was N2A mouse neuroblastoma cells. This cell-line is commonly used in association with Alzheimer's disease studies, and serves as a good model cell-line for these internalisation assays where peptides derived from proteins involved in Alzheimer's disease were examined. These Internalisation assays were performed at 37° C., therefore the internalisation by endocytosis cannot be excluded.

For data set [5], the system named is LoVo cells. Kind of data set: Internalisation of biotinylated selCPPs, fluorescence microscopy. The class given is cell-based, human. Here is the method: One aspect of the present invention thus comprises a method for screening the cellular uptake of a broad variety of CPPs in vitro, wherein cells are grown on glass cover slips to suitable, such as 50%, density, whereupon the media is changed to serum free and a blotinylated peptide solution is added. The cells are then incubated, washed, fixed and the peptides are visualised by staining with, e.g. avidin-FITC, or streptavidin-TRITC, and the cell nuclei are counterstained, e.g. with Hoechst. Images are preferably obtained with a fluorescence microscope and evaluated.
FIG. 5. Example of inactivated selCPP. Internalisation of YTA-2 (A) compared to YTA-2 ps (B) In LoVo cells, both biotynilated peptides detected by TRITC-avidin at 37° C.
The cells were grown on round glass cover slips (12 mm, GTF, Sweden) in a 24-well plate to approximately 50% confluence. The media was changed to serum free and the biotinylated peptide solutions were added. The cells were incubated for 30 min at 37 or 4° C. The cells were washed twice with PBS, fixed with 4% paraformaldehyde solution 15 min at room temperature (dark) and then permeabilised in 30 mM HEPES buffer containing 0.5% w/v Triton X-100, 3 min on Ice. Sites for unspecific binding were blocked In PBS containing 3% (w/v) bovine serum albumin, overnight at 4° C. The peptides were visualised by staining with avidin-FrTC or streptavidin-TRITC (Molecular Probes, the Netherlands). The cell nuclei were stained with Hoechst 33258 (0.5 μg/ml) for 5 min, after which the cover slips were washed 3 times with PBS and mounted in 25% glycerol in PBS. The images were obtained with a Leica DM IRE2 fluorescence microscope (Leica Microsystem., Sweden) and processed in PhotoShop 6.0 software (Adobe Systems Inc., CA) (See e.g. FIG. 38-40).

In data set [6] the test system is Bowes cells. Kind of data set: Peptide uptake in attached Bowes cells, fluorescence in cell lysate. The note with it: Fluoresceinyl peptide, 5 μM, 30 min, 37° C. The class given is cell-based, human.
Description: Cells were detached with trypsin (Invitrogen, Sweden), dissolved in culture media and centrifuged (1000×g for 10 min at RT). The cells were resuspended, counted and aliqoted in HKR on Ice, 300 000 cells/tube. Abz-labelled peptide was incubated for 15 and 30 min together with the cells in suspension, on a shaking 37° C. water bath. To stop the uptake or outflow, trypsin solution was added for 3 min. The cells were spun down at 1000×g for 10 min at 4° C. The pellets were resuspended in HKR for fluorescence detection, or for the outflow samples, incubated again with peptide-free HKR. Fluorescence was read at 320/420 nm on a Spectramax Gemini XS (Molecular Devices, Calif.). The intracellular concentrations were calculated from a standard curve of Abz-labelled peptides. […] Additionally, a varianty of the same assay was applied: the cells were seeded in a 24well plate at a density of 100 000 cells/well, the day before. Cells are incubated at 5 μM peptide concentration for 30 min at 37° C. Trypsin treated, washed and lysed in hydrochloric acid. The fluorescence was measured as described for the suspension assay.
Human melanoma cells Bowes, were cultured in MEM using standard cell culturing techniques, and seeded at density of 100 000 cells/well in 24 well-plates the day before experiments were conducted.
Data set [7] can be described thus: In vivo effect of GOP on insulin release and blood glucose level. The arrangement: species or system Wistar rats. Here is the method:
Healthy male Wistar rats, weighing approximately 250 g, were fasted over-night. After an initial blood sample obtained by incision of the distal tail vein (0 min), GOP (M528, 100 nmol/kg; n=4) was injected intraperitoneally, followed by another i.p. injection of glucose (1 g/kg). Control rats (n=4) were injected with saline and glucose. Additional blood samples were taken from the tail vein after 10 and 30 min. Blood glucose levels were determined by a glucose oxidase method and plasma insulin levels by radioimmunoassay.

Data set [8] concerns N2A cells. The class given is cell-based, mouse.

Where no end group is shown, it is not given here. [ ]: non-standard residue; d: D form.

On to “IVIAKLKANLMCKTCRLAK-amide (IVIAKLKANLMCKTCRLAK-NH2; cysteine pairing not given here) [Peptide M569]”, for which, in data set [1] (37° C. and 4° C.), the cellular penetration entry was “temperature independent penetration”. Further, in data set [1] (Bowes cells, 37° C.), the cellular localisation entry is “both cytosolic and plasma membrane localisation”.
Regarding IAIAKLAA amide (IAIAKLAA-NH2) [GOP11], in data set [2] (10 μM peptide), the “Insulin release at 16.7 mM glucose” value is “inh−”. For the same compound, in data set [2] (100 μM peptide), the “Insulin release at 3.3 mM glucose” value was “inh−” and the “Insulin release at 16.7 mM glucose” value is given as “inh−−”.
Consider Sar^1-Thr^8-angiotensin II, for which, in data set [3] (45 μM antagonist), the “effect on contraction induced by M511” value is on record as “unable to affect” and the “effect on contraction induced by angiotensin II” value was “able to revert”.
Take IAIAKLKA amide (IAIAKLKA-NH2) [GOP4]: the “Insulin release at 16.7 mM glucose” value is given as “inh−−” in data set [2] (10 μM peptide) and “inh−” in data set [2] (100 μM peptide). In data set [2] (100 μM peptide), the “Insulin release at 3.3 mM glucose” value is recorded as “inh−”.
With KKAAQIRSQVMTHLRVI [APP (521-536)], in data set [4], the cellular localisation result was “both in the nucleus and the membrane”; the cellular internalisation result was “has cell-penetrating abilities”.
For IVIAKLRA amide (IVIAKLRA-NH2) [GOP3], the “Insulin release at 16.7 mM glucose” value in data set [2] (10 μM peptide) is listed as “stim+”; in data set [2] (100 μM peptide), “stim++”. Further, the “Insulin release at 3.3 mM glucose” value in data set [2] (100 μM peptide) is given as “stim++”.
Regarding “SGESLAY-YTAIAWVKAFIRKLRK (SGESLAYYTAIAWVKAFIRKLRK) [YTA-2ps]”, in data set [5], the “Comment (staining/localisation)” value is reported as “bind the plasma”. Moreover, the “% of added fluorescence in cell lysate” value in data set [6] was determined as 3.5%.
On to IVVSKLKA amide (IVVSKLKA-NH2) [GOP16], for which the “Insulin release at 16.7 mM glucose” value in data set [2] (10 μM peptide) is listed as “no”. Further, in data set [2] (100 μM peptide), the “Insulin release at 3.3 mM glucose” value is listed as “no” and the “Insulin release at 16.7 mM glucose” value was “no”.
In the case of VVLYKYRCYKVI [presenilin-1 (151-162)], the cellular internalisation entry in data set [4] was “Identical increase in fluorescence”.
For “all-D-(IVIAKLKA) amide ([dI][dV][dI][dA][dK][dL][dK][dA]-NH2; N-terminus assumed; SMILES CC[C@@H](C)[C@@H](N)C(=O)N[C@@H](C(=O)N[C@@H](C(=O)N[C@H](C)C(=O)N[C@H](CCCCN)C(=O)N[C@H](CC(C)C)C(=O)N[C@H](CCCCN)C(=O)N[C@H](C)C(N)=O)[C@H](C)CC)C(C)C) [GOP6]”, the results for the “Insulin release at 16.7 mM glucose” value in data set [2] (10 μM peptide) and in data set [2] (100 μM peptide) were “inh−” and “no”, respectively. Further, the “Insulin release at 3.3 mM glucose” value in data set [2] (100 μM peptide) is given as “stim+”.
As to TP10 [reference compound], in data set [6], the “% of added fluorescence in cell lysate” value was 1.8%.
In the case of “angiotensin: angiotensin II, AT1 receptor agonist”, in data set [3] (1 μM), the “contraction effect compared with 30 mM KCl” value is “almost the same as the effect of 30 mM KCl”.
For the compound LRSWRVIIRNGQR [LRSW-3], the “% of added fluorescence in cell lysate” value in data set [6] is 1.9%.
`COc1ccc2c(c1)CC[C@@H]1[C@@H]2CC[C@]2(C)[C@@H](NCCCCCCN3C(=O)C=CC3=O)CC[C@@H]12` [Peptide U73122]: the “effect on tonus of the artery” value in data set [3] (30 μM) is given as “did not affect tonus”. For the same compound, the “effect on M511-induced contraction after posterior administration” value in data set [3] (30 μM, 16 μM M511) was “did not modify blood vessel contraction”. In addition, in data set [3] (30 μM, added 30 minutes prior to 16 μM M511), the “decrease of the effect of M511” value was “more than 50%”.
Consider IVIAKLAA amide (IVIAKLAA-NH2) [GOP5], for which the “Insulin release at 16.7 mM glucose” value in data set [2] (10 μM peptide) was “inh−”. Besides, in data set [2] (100 μM peptide), the “Insulin release at 3.3 mM glucose” value is listed as “no” and the “Insulin release at 16.7 mM glucose” value was “no”.
With IATVIVITLVMLKKK [APP (712-726) WT], in data set [4], the “aggregation on addition to the 24-well plate” value was “formed aggregates” and the cellular internalisation entry was “do not reveal any no uptake”.
The corresponding values for “IATVIFITLVMLKKK [APP (712-726) V717F mutant]” are “formed aggregates” and “do not reveal any no uptake”.
As to IVIAKLKA amide (IVIAKLKA-NH2) [GOP], the “stimulation of insulin release” value in data set [2] (10 μM GOP, 3.3 mM glucose, p<0.001) is 5 fold; in data set [2] (1 and 10 FM GOP, 16.7 mM glucose), 4 fold. Further, the “Insulin release at 16.7 mM glucose” value was “stim+” in data set [2] (10 μM peptide) and “stim++” in data set [2] (100 μM peptide). Also, the “Insulin release at 3.3 mM glucose” value in data set [2] (100 μM peptide) is reported as “no”. The plasma insulin entry in data set [7] (100 nmol/kg i.p. + glucose 1 g/kg, after 10 min, vs control rats p<0.05) was “increased significantly”. In addition, in data set [7] (100 nmol/kg i.p. + glucose 1 g/kg, at 10 min, vs control rats p<0.02), the blood glucose levels entry is reported as “significantly lower”. Further, in data set [7] (after 30 min), the “insulin and glucose levels vs control rats” value is given as “no differences”.
With LRSWVISRSIRKAA [LRSW-1], the “% of added fluorescence in cell lysate” value in data set [6] is 1.4%.
On to “VATKSVSVFYTRK [presenilin-1 (97-109) deletion analogue]”, for which, in data set [4], the cellular localisation entry is “mostly localised in the cytosole” and the cellular internalisation entry is “showed cell-penetrating abilities”.
Regarding Transportan [reference compound], the “% of added fluorescence in cell lysate” value in data set [6] turned out to be 10.5%.
For “MANLGYWLLALFVTMWTDVGLCKKRPKP [mouse PrPC(1-28)]”, in data set [8], the cargo delivery result is reported as “ability to carry a cargo avidin into cells”, the cell-penetrating activity entry is “is indeed a CPP” and the cellular localization entry is recorded as “perinuclear localization”.
